What was measured:
Type in all cases: cell-based
A3 cell lines = assay: MTT assay, A3 cell lines (lung cancer stem cell); details: for inhibition effect on A3 cell line (in words): summary of MTT cell viabilities
Excerpt: Please to FIG. 4B, various cell viabilities of the A3 cell lines can be obtained through the MTT assay and illustrated in FIG. 4B while the compounds No. 1˜30 are used to treat A3 cell lines, wherein A3 cell lines are lung cancer stem cell.

A control cell lines = assay: MTT assay, A control cell lines (lung cancer cell)
Excerpt: Please refer to Table 1 and FIGS. 4A-4C. According to a MTT assay (Table 1), various cell viabilities of the A control cell lines can be obtained and illustrated in FIG. 4A while the compounds No. 2˜30 are used to treat A control cell lines, wherein A control cell lines are lung cancer cell.

HEL299 fibroblast = assay: MTT assay, HEL299 fibroblast
Excerpt: (§1) Please refer to FIG. 4C, various cell viabilities of the HEL299 cell lines can be obtained through the MTT assay while the compounds No. 1˜30 are used to treat HEL299 cell lines, wherein HEL299 cell lines are fibroblast.

[1] = MTT assay, HEL299 fibroblast; details: human
Excerpt: as §1

Row | SMILES | cell viabilities of A3 cell lines (MTT assay) (A3 cell lines) | inhibition effect on A3 cell line (in words) (A3 cell lines) | cell viabilities of A control cell lines (MTT assay) (A control cell lines) | cytotoxicity effect on the normal fibroblast (in words) (HEL299 fibroblast) | viability [1] | inhibition effect on A control cell line (in words) (A control cell lines; summary of MTT cell viabilities)
1 | CC(C)Sc1ccc2c(=O)c3ccccc3sc2c1Cl [No. 4, 4-Chloro-3-(isopropylthio)-9H-thioxanthen-9-one] | 56.1% | inhibition effect | 91.1 ± 2.02% | without the cytotoxicity effect | 103% | –
2 | Cc1ccc(Sc2ccc3c(=O)c4ccccc4sc3c2Cl)c(C)c1 [No. 10, 4-Chloro-3-(2,4-dimethylphenylthio)-9H-thioxanthen-9-one] | 59.9% | inhibition effect | 104 ± 11.0% | without the cytotoxicity effect | 108% | –
3 | Cc1cc(C)c(CSc2ccc3c(=O)c4ccccc4sc3c2Cl)c(C)c1 [No. 28, 4-Chloro-3-(2,4,6-trimethylbenzylthio)-9H-thioxanthen-9-one] | 98.3 ± 2.25% | – | 52.9% | without the cytotoxicity effect | 91.2% | inhibition effect
